Reference: patent US20230000842A1, “METHODS OF TREATING CARTILAGE DISORDERS THROUGH INHIBITION OF CLK AND DYRK” (SAMUMED, LLC, priority 2019, published 2023)

How the values were obtained:
[1] = tested on: primary human mesenchymal stem cells (hMSCs); assay: Chondrogenesis screening using primary human mesenchymal stem cells; format: cell-based; details: Homo sapiens, Mesenchymal stem cells
Procedure, shortened: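 Primary hMSCs at passage 3–6 were treated across compound concentrations, with TGF-β3 as positive control. Chondrogenic nodule area per well was normalized to 3 DMSO wells on the same plate (fold over DMSO, 2–3 replicates). EC50, maximum activity and the dose reaching it were derived.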

[2] = tested on: CLK mediated phosphorylation of SRSF4, 5, 6; assay: Western blot of phospho-SRSF in hMSCs and human chondrocytes; format: cell-based; details: 1 hr, vs DMSO
Procedure: (§1) Cells were plated at 300,000 cells per well in a 6-well plate and following an overnight incubation, treated with DMSO (vehicle control) or indicated compounds and incubated at 37° C. and 5% CO2 for the indicated times. Following treatment, cells were trypsinized and pelleted by centrifugation and washed with PBS. Total protein from the cell pellet was extracted or for fractionation, protein was fractionated into cytoplasmic and nuclear fractions using a Nuclear and Cytoplasmic Extraction Reagents (NE-PER™) kit containing Halt™ protease and phosphatase inhibitors (Thermo Fisher). Protein concentrations were quantified using the Pierce Micro BCA protein assay kit (Thermo Fisher). […] Blots were blocked with non-fat dry milk. Primary antibodies were incubated overnight at 4° C. β-actin and Lamin B1 were used as loading controls (Supplementary Table S2 for primary antibodies). Mouse and rabbit horseradish peroxidase (HRP)-conjugated secondary antibodies were diluted in 5% blocking buffer in TBS-T. Protein-antibody complexes were detected by chemiluminescence using the SuperSignal West Femto Chemiluminescent Substrate (Thermo Fisher) and images were captured with a UVP ChemiDocIt2 camera system (Fisher Scientific, Hampton, N.H.).

[3] = tested on: FOXO1; assay: Western blot and immunofluorescence of FOXO1 with IL1-β; format: cell-based, human; details: hMSCs and chondrocytes; in the presence of IL-1β; compared to DMSO
Procedure: Cells were stained with anti-FOXO1 antibody (red) and DAPI nuclear stain (blue).
as §1

[4] = tested on: SIRT1 (pSer27, pSer47); assay: Western blot of phospho-SIRT1 with IL1-β; format: cell-based, human; details: hMSCs and chondrocytes; in the presence of IL-1β; compared to DMSO
Procedure: as §1

[5] = tested on: Wnt pathway gene expression in hMSCs; assay: Nanostring nCounter Wnt Pathways panel in hMSCs; format: cell-based, human; details: >2-fold change, p<0.05, FDR corrected
Procedure: FIGS. 2D and 2E depict gene expression changes of selected genes from FIG. 2C by qRT-PCR (n=3, Mean±95% CI, *p<0.05, **p<0.01, ***p<0.001, one-way ANOVA). […] Downregulation of AXIN2, TCF7, LRP5, BAMBI, NKD1, PAI-1, LRP6, FZD6, FZD7, PITX2, ERBB2, and CTGF gene expression and increased levels of Wnt pathway inhibitors SFRP2 and DACT1 were determined by qPCR.
Fifty nanograms of RNA was hybridized with Tagsets and probe pools from the nCounter® Vantage 3D™ Wnt Pathways Panel (NanoString Technologies) for 16 hrs at 67° C. Hybridized samples were ran on a nCounter® SPRINT Profiler (NanoString Technologies). Nanostring gene counts were normalized by the geometric mean of all housekeeping genes by nSolver (v3.0). P-values from normalized counts were calculated by an independent t-test and adjusted by the false discovery rate (FDR) method (Benjamini & Hochberg) to correct for multiple comparisons using R (v3.4.2). Data was plotted using R (v3.4.2).

[6] = tested on: THP1 cells; assay: Western blot of phospho- and total proteins in THP1 cells stimulated with LPS; format: cell-based
Procedure: as §1

[7] = tested on: NF-κB pathway gene expression in THP1 cells; assay: qRT-PCR of NF-κB pathway components in THP1 cells stimulated with LPS; format: cell-based
Procedure: Fold change relative to unstimulated control is shown (n=3, Mean±95% CI, *p<0.05, **p<0.01, ***p<0.001, one-way ANOVA).
Total RNA was isolated using a RNAeasy kit (Qiagen) as per the manufacturer's protocol. cDNA was synthesized using the iScript cDNA Synthesis Kit (Bio-Rad). Quantitative real-time PCR was performed using the CFX384 (Bio-Rad) using gene specific SYBR-green or TaqMan™ primers. Relative gene expression was determined by normalizing to housekeeping genes using the ΔΔCt method. Data was collected from at least 3 replicates per assay.

[8] = tested on: Wnt pathway activity (SW480 colon carcinoma cells stably expressing the Sp5-Luc reporter); assay: Wnt pathway activity screening assay (Sp5-Luc reporter gene assay); details: Homo sapiens, SW480

SMILES: CC(C)CC(=O)Nc1cncc(-c2ccc3[nH]nc(-c4nc5c(-c6cccc(F)c6)cncc5[nH]4)c3c2)c1 [compound 123]
- Emax ([1]; hMSC chondrogenesis, maximum activity relative to TGF-β3 (10 ng/mL) positive control, read-out: Max. Activity as % TGF-β3 activity): 397%
- EC50 ([1]; read-out: Conc (nM) of 50% TGF-β3 activity): 30 nM
- CLK mediated phosphorylation of SRSF4, 5, 6 [2]: dose-dependently inhibited
- phosphorylation of FOXO1 [3]: dose-dependently inhibited
- total FOXO1 protein levels and nuclear localization [3]: increases
- phosphorylation of SIRT1 (pSer27, pSer47) [4]: dose-dependently and more potently inhibited
- number of Wnt pathway genes downregulated [5]: 19 genes
- number of Wnt pathway genes upregulated [5]: 9 genes
- AKT, JNK1, cJUN, p38/MAPK and TLR4 ([6]; 4 hrs, compared to DMSO): not inhibited
- phospho-STAT3 (S727, Y705), phospho- and total NF-κB (p105/p50), and phospho-FOXO1/3a ([6]; 4 hrs, compared to DMSO): dose-dependently decreased
- AKT, cJUN, p38/MAPK, and TLR4 ([6]; 20 hrs): remained unchanged
- NF-κB, STAT3, JNK1 and FOXO1/3a phosphorylation ([6]; 20 hrs): robustly inhibited
- phospho- or total NF-κB (p105/p50) ([6]; THP1 cells + LPS, 10 mins, 30 mins, 1 hr or 2 hrs): no effects
- phospho-STAT3 (Y705) ([6]; THP1 cells + LPS, 1 hr, 2 hrs, 4 hrs and 20 hrs): inhibited
- phospho- and total NF-κB ([6]; THP1 cells + LPS, 4 hrs and 20 hrs): decreased
- total STAT3 ([6]; THP1 cells + LPS, any timepoint): no effects
- LPS-stimulated gene expression of NF-κB components (RELA, RELB) [7]: inhibited
- NF-κB inhibitors (NFKBIA, NFKBIB, IKKβ, IKKγ) expression [7]: without effects
- expression of NF-κB pathway genes (NFKB1, NFKB2, RELA, RELB and BCL3) [7]: inhibited
- EC50 [8]: 3.4 nM
